Results as given in PubChem BioAssay AID248 (DTP/NCI, 2004).
“And” between values parts separate entries of the source, which are not always exact repeats. Identical values can stand only once. Toxic doses and inconclusive results are not listed. Cut-off read from the data, not from the text of the source: active = T/C of 150% or more; inactive = T/C below 125%.

System: L1210 leukemia ip in BDF1 mice, survival T/C
Assay: NCI In Vivo Anticancer Drug Screen. Data for tumor model L1210 Leukemia (intraperitoneal) in B6D2F1 (BDF1) mice
Settings: endpoint: mean survival time, higher = longer survival
In short: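 In this screen, tumor-bearing mice given compound are compared to those given vehicle, and their survival values are reported as a treated-to-control quotient.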

[1] = dose: 50.0 mg/kg/injection, schedule: Q01DX001 (ip), vehicle: saline
[2] = dose: 100.0 mg/kg/injection, schedule: Q01DX001 (ip), vehicle: saline
[3] = dose: 100.0 mg/kg/injection, schedule: Q04DX003 (ip), vehicle: saline with Tween-80
[4] = dose: 200.0 mg/kg/injection, schedule: Q04DX003 (ip), vehicle: saline with Tween-80
[5] = dose: 400.0 mg/kg/injection, schedule: Q04DX003 (ip), vehicle: saline with Tween-80
[6] = dose: 200.0 mg/kg/injection, schedule: Q01DX001 (ip), vehicle: saline
[7] = dose: 400.0 mg/kg/injection, schedule: Q01DX001 (ip), vehicle: saline
[8] = dose: 100.0 mg/kg/injection, schedule: Q01DX009 (ip), vehicle: saline with Tween-80
[9] = dose: 200.0 mg/kg/injection, schedule: Q01DX009 (ip), vehicle: saline with Tween-80
[10] = dose: 400.0 mg/kg/injection, schedule: Q01DX009 (ip), vehicle: saline with Tween-80

Measured: T/C

CCC/C=[CH]/[Hg][Cl]
inactive: dose: 6.25 mg/kg/injection, schedule: Q01DX009 (ip), vehicle: other 93 % of control | dose: 6.25 mg/kg/injection, schedule: Q04DX003 (ip), vehicle: saline sonified 95 % of control | dose: 12.5 mg/kg/injection, schedule: Q01DX009 (ip), vehicle: other 94 % of control | dose: 12.5 mg/kg/injection, schedule: Q04DX003 (ip), vehicle: saline sonified 95 % of control | dose: 25.0 mg/kg/injection, schedule: Q01DX009 (ip), vehicle: other 97 % of control | dose: 25.0 mg/kg/injection, schedule: Q04DX003 (ip), vehicle: saline sonified 106 % of control

O=C(O)C[P+](c1ccccc1)(c1ccccc1)c1ccccc1
inactive: [1] 106 % of control | [2] 112 % of control

COC(=O)CN(c1ccc(C#N)c2ccccc12)S(=O)(=O)c1ccccc1
inactive: [3] 94 % of control | [4] 96 % of control | [5] 94 % of control

CC(C)N=Cc1cc(Br)cc(Br)c1O.CC(C)N=Cc1cc(Br)cc(Br)c1O.[Co]
inactive: dose: 100.0 mg/kg/injection, schedule: Q04DX003 (ip), vehicle: saline 88 % of control | dose: 200.0 mg/kg/injection, schedule: Q04DX003 (ip), vehicle: saline 91 % of control | dose: 400.0 mg/kg/injection, schedule: Q04DX003 (ip), vehicle: saline 105 % of control

COCCOC(C)C(/C=N/NC(N)=S)=N/NC(N)=S (stereo not drawn)
inactive: [1] 100 % of control | [2] 100 % of control | [6] 93 % of control | [7] 97 % of control

CC(C)(C)c1ccc(OC(=S)N2CCOCC2)cc1
inactive: [8] 98 % of control | [3] 96 % of control | [9] 107 % of control | [4] 96 % of control | [10] 102 % of control | [5] 93 % of control

CNC(=O)N(C)N
inactive: dose: 12.5 mg/kg/injection, schedule: Q01DX009 (ip), vehicle: saline 97 % of control | dose: 25.0 mg/kg/injection, schedule: Q01DX009 (ip), vehicle: saline 95 % of control | dose: 50.0 mg/kg/injection, schedule: Q01DX009 (ip), vehicle: saline 119 % of control

O=C1NCC(Nc2ccc(Cl)cc2)C(=O)N1 (stereo not drawn)
inactive: dose: 100.0 mg/kg/injection, schedule: Q01DX Z (ip), vehicle: methylcellulose (MC) 89 % of control | dose: 200.0 mg/kg/injection, schedule: Q01DX Z (ip), vehicle: methylcellulose (MC) 92 % of control

NC(=O)C(=O)c1ccco1
inactive: [2] 92 % of control | [6] 101 % of control | [7] 108 % of control

ClC1C2C=CC1CC2 (stereo not drawn)
inactive: dose: 100.0 mg/kg/injection, schedule: Q01DX001 (ip), vehicle: carboxymethylcellulose (CMC) 90 % of control | dose: 200.0 mg/kg/injection, schedule: Q01DX001 (ip), vehicle: carboxymethylcellulose (CMC) 90 % of control | dose: 400.0 mg/kg/injection, schedule: Q01DX001 (ip), vehicle: carboxymethylcellulose (CMC) 93 % of control

CCCCCCCCCCCCCCCCCCNC(=O)Nc1ccc(OC)cc1
inactive: dose: 100.0 mg/kg/injection, schedule: Q04DX002 (ip), vehicle: Klucel (hydroxypropylcellulose) (HPC) 93 % of control | dose: 200.0 mg/kg/injection, schedule: Q04DX002 (ip), vehicle: Klucel (hydroxypropylcellulose) (HPC) 104 % of control | dose: 400.0 mg/kg/injection, schedule: Q04DX002 (ip), vehicle: Klucel (hydroxypropylcellulose) (HPC) 93 % of control

O=P(NC12CC3CC(CC(C3)C1)C2)(Oc1ccccc1Cl)Oc1ccccc1Cl
inactive: dose: 100.0 mg/kg/injection, schedule: Q01DX009 (ip), vehicle: Klucel (hydroxypropylcellulose) (HPC) 101 % of control | dose: 200.0 mg/kg/injection, schedule: Q01DX009 (ip), vehicle: Klucel (hydroxypropylcellulose) (HPC) 101 % of control | dose: 400.0 mg/kg/injection, schedule: Q01DX009 (ip), vehicle: Klucel (hydroxypropylcellulose) (HPC) 95 % of control

C=CCc1ccc(OC(=O)Nc2cc(Cl)ccc2C)c(OC)c1
inactive: dose: 100.0 mg/kg/injection, schedule: Q01DX001 (ip), vehicle: saline with Tween-80 93 % of control | [8] 106 % of control and 87 % of control | dose: 100.0 mg/kg/injection, schedule: Q04DX002 (ip), vehicle: saline with Tween-80 101 % of control and 92 % of control | [3] 103 % of control | dose: 200.0 mg/kg/injection, schedule: Q01DX001 (ip), vehicle: saline with Tween-80 97 % of control | [9] 101 % of control and 87 % of control | dose: 200.0 mg/kg/injection, schedule: Q04DX002 (ip), vehicle: saline with Tween-80 95 % of control and 97 % of control | [4] 101 % of control | dose: 400.0 mg/kg/injection, schedule: Q01DX001 (ip), vehicle: saline with Tween-80 92 % of control | [10] 101 % of control and 102 % of control | dose: 400.0 mg/kg/injection, schedule: Q04DX002 (ip), vehicle: saline with Tween-80 95 % of control and 98 % of control | [5] 101 % of control
